Source: BindingDB's records for patent US20250352549 (Avelos Therapeutics, 2025)

Target: T1, Serine/threonine-protein kinase greatwall (Human, UniProt Q96GX5)
T1 sequence (Q96GX5 whole entry): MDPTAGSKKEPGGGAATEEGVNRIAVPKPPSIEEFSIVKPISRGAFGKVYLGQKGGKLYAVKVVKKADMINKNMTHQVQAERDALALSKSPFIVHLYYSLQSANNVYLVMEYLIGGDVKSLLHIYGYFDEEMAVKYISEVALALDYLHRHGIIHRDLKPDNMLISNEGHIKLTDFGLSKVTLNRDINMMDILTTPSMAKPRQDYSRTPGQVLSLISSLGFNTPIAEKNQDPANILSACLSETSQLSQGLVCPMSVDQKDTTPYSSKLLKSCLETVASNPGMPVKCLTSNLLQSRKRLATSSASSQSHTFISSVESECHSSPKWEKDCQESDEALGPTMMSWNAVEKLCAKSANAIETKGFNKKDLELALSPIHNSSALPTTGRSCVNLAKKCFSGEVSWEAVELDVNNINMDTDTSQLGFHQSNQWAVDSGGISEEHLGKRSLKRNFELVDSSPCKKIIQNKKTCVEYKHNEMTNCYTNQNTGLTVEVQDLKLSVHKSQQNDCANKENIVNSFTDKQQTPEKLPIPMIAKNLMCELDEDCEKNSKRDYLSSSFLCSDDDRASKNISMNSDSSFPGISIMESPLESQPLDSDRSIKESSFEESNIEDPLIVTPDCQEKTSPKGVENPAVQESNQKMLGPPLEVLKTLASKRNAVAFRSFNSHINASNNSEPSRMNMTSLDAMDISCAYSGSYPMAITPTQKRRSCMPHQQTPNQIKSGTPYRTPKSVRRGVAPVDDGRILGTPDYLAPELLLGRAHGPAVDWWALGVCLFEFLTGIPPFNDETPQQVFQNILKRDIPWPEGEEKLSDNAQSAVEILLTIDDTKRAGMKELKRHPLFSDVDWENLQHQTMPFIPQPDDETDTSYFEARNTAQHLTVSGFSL
Assay: MASTL Activity Assay
Method: Wild-type human active MASTL (154 pM) was incubated in assay buffer (50 mM HEPES, 100 mM NaCl, 0.1 mM EGTA, 10 mM MgCl2, 0.01% Tween-20, 0.5 mM TCEP, pH 7.5) with biotin tagged 40-mer ENSA peptide (10 nM), test compound and ATP (18 μM) for 60 minutes at room temperature. Test compounds were assayed using a 12-point dose range consisting of a 0, DMSO control and 10 sequential doses consisting from 0.0005, 0.002, 0.005, 0.014, 0.04, 0.12, 0.37, 1.11, 3.33 and 10 μM. The DMSO concentration was the same (1%) in all samples. An equal volume of detection buffer (assay buffer+267.5 pM Ab-K, 1.25 nM SA-D2, 20 mM EDTA and 400 mM KF) was added to stop the reaction to make a final volume of 20 μl, RT for 60 mins. Activity was measured using a plate reader (PerkinElmer EnSight) by the FRET signal generated between SA-D2 (streptavidin-D2) and Ab-K (anti-phospho-Serine 67 ENSA antibody (rabbit polyclonal, using standard techniques by a commercial supplier) conjugated to Cryptate). HTRF reagents (CisBio) were prepared as per the manufacturer recommendations. The 40-mer biotin-tagged ENSA peptide (synthesised by Bionics) used was based around Serine 67 on ENSA ([…]).

Compound	IC50
Cc1ncc2ncc(-c3nc(N)nc(NC(C)(C)c4ccn(C(F)F)n4)n3)cn12 [US20250352549, Example 1]	< 500 nM
Cc1ncc2ccc(-c3nc(N)nc(NC(c4ccccc4)c4c[nH]c(C(F)(F)F)n4)n3)cn12 (configuration not stated) [US20250352549, Example 2]	> 1000 nM
COC(=O)C(Cc1cccc(Cl)c1Cl)Nc1cc(-c2ccc3cnc(C)n3c2)nc(N)n1 (configuration not stated) [US20250352549, Example 3]	< 500 nM
COC(=O)C(Cc1cccc(Cl)c1Cl)Nc1nc(N)nc(-c2ccc3cnc(C)n3c2)n1 (configuration not stated) [US20250352549, Example 4]	< 500 nM
[2H]C([2H])([2H])Nc1nc(NC(CC)c2c[nH]c(C(F)(F)F)n2)nc(-c2ccc3cnc(C)n3c2)n1 (configuration not stated) [US20250352549, Example 5]	< 500 nM
CCC(Nc1nc(N)nc(-c2ccc3[nH]ncc3c2)n1)c1c[nH]c(C(F)(F)F)n1 (configuration not stated) [US20250352549, Example 8]	< 500 nM
[2H]C([2H])([2H])n1ncc2ccc(-c3nc(N)nc(NC(C)(C)c4ccn(C(F)F)n4)n3)cc21 [US20250352549, Example 9]	< 500 nM
CC(C)(Nc1nc(N)nc(-c2ccc3cnc(N)n3c2)n1)c1ccn(C(F)F)n1 [US20250352549, Example 10]	< 500 nM
CC(C)(Nc1nc(N)nc(-c2ccc3cnc(N)n3c2)n1)c1c[nH]c(C(F)(F)F)n1 [US20250352549, Example 11]	< 500 nM
Cc1ncc2ccc(-c3nc(C#N)nc(NC(C)(C)c4ccn(C(F)F)n4)n3)cn12 [US20250352549, Example 12]	> 1000 nM
Cc1ncc2ncc(-c3nc(N)nc(NC(C)(C)c4ccn(C(F)F)n4)n3)cn12 [US20250352549, Example 13]	> 1000 nM
Cc1ncc2ccc(-c3nc(C#N)nc(NC(Cc4cccc(Cl)c4Cl)C(=O)O)n3)cn12 (configuration not stated) [US20250352549, Example 15]	> 1000 nM
Cc1ncc2ccc(-c3cc(NCC(N)c4cccc(Cl)c4Cl)nc(N)n3)cn12 (configuration not stated) [US20250352549, Example 16]	< 500 nM
CNC(CNc1cc(-c2ccc3cnc(C)n3c2)nc(N)n1)c1cccc(Cl)c1Cl (configuration not stated) [US20250352549, Example 17]	< 500 nM
CC(=O)NC(CNc1cc(-c2ccc3cnc(C)n3c2)nc(N)n1)c1cccc(Cl)c1Cl (configuration not stated) [US20250352549, Example 18]	< 500 nM
CC(=O)N(C)C(CNc1cc(-c2ccc3cnc(C)n3c2)nc(N)n1)c1cccc(Cl)c1Cl (configuration not stated) [US20250352549, Example 19]	< 500 nM
CONC(=O)C(Cc1cccc(Cl)c1Cl)Nc1nc(N)nc(-c2ccc3cnc(C)n3c2)n1 (configuration not stated) [US20250352549, Example 20]	< 500 nM
Cc1ncc2ccc(-c3nc(N)nc(NC(Cc4cccc(Cl)c4Cl)c4nnn[nH]4)n3)cn12 (configuration not stated) [US20250352549, Example 21]	< 500 nM
Cc1ncc2ccc(-c3nc(N)nc(NC(Cc4cccc(Cl)c4Cl)c4nc[nH]n4)n3)cn12 (configuration not stated) [US20250352549, Example 22]	< 500 nM
Cc1ncc2ccc(-c3nc(N)nc(NC(Cc4cccc(Cl)c4Cl)c4ncno4)n3)cn12 (configuration not stated) [US20250352549, Example 23]	> 1000 nM
CC(C)C(Nc1nc(N)nc(-c2ccc3[nH]ncc3c2)n1)c1c[nH]c(C(F)(F)F)n1 (configuration not stated) [US20250352549, Example 24]	< 500 nM
CNc1nc(NC(C)(C)c2ccn(C(F)F)n2)nc(-c2ccc3[nH]ncc3c2)n1 [US20250352549, Example 26]	< 500 nM
CNc1nc(NC(c2ccn(C(F)F)n2)C(C)C)nc(-c2ccc3[nH]ncc3c2)n1 (configuration not stated) [US20250352549, Example 27]	< 500 nM
[2H]C([2H])([2H])n1ncc2ccc(-c3nc(N)nc(NC(c4c[nH]c(C(F)(F)F)n4)C(C)C)n3)cc21 (configuration not stated) [US20250352549, Example 28]	< 500 nM
[2H]C([2H])([2H])Nc1nc(NC(C)(C)c2ccn(C(F)F)n2)nc(-c2ccc3cnc(N)n3c2)n1 [US20250352549, Example 30]	< 500 nM
[2H]C([2H])([2H])Nc1nc(NC(c2c[nH]c(C(F)(F)F)n2)C(C)C)nc(-c2ccc3cnn(C)c3c2)n1 (configuration not stated) [US20250352549, Example 31]	< 500 nM

Compound	IC50
Nc1nc(NC(c2c[nH]c(C(F)(F)F)n2)C2CC2)nc(-c2ccc3[nH]ncc3c2)n1 (configuration not stated) [US20250352549, Example 32]	< 500 nM
Nc1nc(NC(c2ccn(C(F)F)n2)C2CC2)nc(-c2ccc3[nH]ncc3c2)n1 (configuration not stated) [US20250352549, Example 33]	< 500 nM
CC(C)C(Nc1nc(N)nc(-c2ccc3c(cnn3C)c2)n1)c1c[nH]c(C(F)(F)F)n1 (configuration not stated) [US20250352549, Example 34]	< 500 nM
Cc1n[nH]c2ccc(-c3nc(N)nc(NC(c4c[nH]c(C(F)(F)F)n4)C(C)C)n3)cc12 (configuration not stated) [US20250352549, Example 35]	< 500 nM
[2H]C([2H])([2H])n1ncc2ccc(-c3nc(N)nc(NC(C)(C)Cc4cccc(F)n4)n3)cc21 [US20250352549, Example 36]	< 500 nM
CNc1ncc2ccc(-c3nc(N)nc(NC(C)(C)c4ccn(C(F)F)n4)n3)cn12 [US20250352549, Example 37]	< 500 nM
CC(C)(Nc1nc(N)nc(-c2ccc3cnc(O)n3c2)n1)c1ccn(C(F)F)n1 [US20250352549, Example 38]	> 1000 nM
[2H]C([2H])([2H])n1ncc2ccc(-c3cc(NC(C)(C)Cn4ccc(C(F)(F)F)n4)nc(N)n3)cc21 [US20250352549, Example 40]	< 500 nM
CC(C)(Cc1cccc(Cl)c1Cl)Nc1nc(N)nc(-c2ccc3cnc(N)n3c2)n1 [US20250352549, Example 41]	< 500 nM
Nc1nc(NCCc2ccc(Cl)c(F)c2F)nc(-c2ccc3cnc(N)n3c2)n1 [US20250352549, Example 42]	< 500 nM
CC(C)CC(Nc1nc(N)nc(-c2ccc3[nH]ncc3c2)n1)c1c[nH]c(C(F)(F)F)n1 (configuration not stated) [US20250352549, Example 43]	in the range around 750 nM
Cc1nn(C)c2cc(-c3nc(N)nc(NC(c4c[nH]c(C(F)(F)F)n4)C(C)C)n3)ccc12 (configuration not stated) [US20250352549, Example 44]	< 500 nM
CC(C)C(Nc1nc(N)nc(-c2ccc3c(F)nn(C)c3c2)n1)c1c[nH]c(C(F)(F)F)n1 (configuration not stated) [US20250352549, Example 45]	< 500 nM
Cn1ncc2cc(-c3nc(N)nc(NC(C)(C)c4c[nH]c(C(F)(F)F)n4)n3)ccc21 [US20250352549, Example 46]	< 500 nM
Cn1ncc2cc(-c3nc(N)nc(NC(C)(C)c4ccn(C(F)F)n4)n3)ccc21 [US20250352549, Example 48]	< 500 nM
CNc1nc(NC(C)(C)c2ccn(C(F)F)n2)nc(-c2ccc3cnc(C)n3c2)n1 [US20250352549, Example 135]	< 500 nM
CNc1nc(NC(Cc2cccc(Cl)c2Cl)C(=O)O)nc(-c2ccc3cnc(C)n3c2)n1 (configuration not stated) [US20250352549, Example 138]	< 500 nM
Cc1ncc2ccc(-c3nc(N)nc(NC(C)c4ccc(F)cn4)n3)cn12 (configuration not stated) [US20250352549, Example 139]	< 500 nM
CCC(Nc1nc(N)nc(-c2ccc3cnc(C)n3c2)n1)c1ccc(F)cn1 (configuration not stated) [US20250352549, Example 140]	< 500 nM
Cc1ncc2ccc(-c3cc(NC(Cc4cccc(F)c4F)C(=O)O)nc(N)n3)cn12 (configuration not stated) [US20250352549, Example 144]	< 500 nM
CNc1nc(NC(Cc2cccc(Cl)c2Cl)C(=O)O)cc(-c2ccc3cnc(C)n3c2)n1 (configuration not stated) [US20250352549, Example 145]	< 500 nM
Cc1nc(F)c2ccc(-c3nc(N)nc(NC(c4c[nH]c(C(F)(F)F)n4)C(C)C)n3)cn12 (configuration not stated) [US20250352549, Example 147]	< 500 nM
Cc1ncc2ccc(-c3cc(NC(Cc4cccc(Cl)c4Cl)C(N)=O)nc(N)n3)cn12 (configuration not stated) [US20250352549, Example 148]	< 500 nM
Cc1ncc2ccc(-c3cc(NC(c4c[nH]c(C(F)(F)F)n4)C(C)C)nc(N)n3)cn12 (configuration not stated) [US20250352549, Example 150]	< 500 nM
Cc1ncc2ccc(-c3nc(N)nc(NCc4c[nH]c(C(F)(F)F)n4)n3)cn12 [US20250352549, Example 151]	< 500 nM
Cc1ncc2ccc(-c3nc(N)nc(NC(c4c[nH]c(C(F)(F)F)n4)C4CC4)n3)cn12 (configuration not stated) [US20250352549, Example 154]	< 500 nM
